Assays:
Human LBAT = target: T1, Human LBAT (Homo sapiens, UniProt Q14973); assay: LBAT (h/m) assay, human LBAT-overexpressing cells, 3H-taurocholic acid uptake; assay type: cell-based; conditions: 0.3 μM 3H-taurocholic acid and 7.5 μM cold taurocholic acid, 20 minutes, read-out: hLBAT IC50
T1 construct: expressed in transfected cells; Geneticin selection
T1 sequence (Q14973 1-349): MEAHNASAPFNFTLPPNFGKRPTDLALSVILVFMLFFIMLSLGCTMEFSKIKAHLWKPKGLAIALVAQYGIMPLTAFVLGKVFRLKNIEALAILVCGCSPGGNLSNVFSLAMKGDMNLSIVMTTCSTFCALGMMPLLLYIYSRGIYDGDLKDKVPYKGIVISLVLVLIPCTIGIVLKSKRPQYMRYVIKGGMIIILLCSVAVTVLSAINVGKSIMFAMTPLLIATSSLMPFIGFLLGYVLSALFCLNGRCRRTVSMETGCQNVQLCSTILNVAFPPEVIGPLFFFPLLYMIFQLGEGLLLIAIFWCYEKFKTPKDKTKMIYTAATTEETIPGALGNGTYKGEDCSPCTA
Method: 20,000 cells (Human or Mouse LBAT-overexpressing cells) were seeded in 96-wells plate (Corning CLS3809) in 100 μL MEM-alpha medium (Gibco 12571-063) supplemented with 10% FBS (Gibco 10438026) containing Geneticin (Gibco 10131-027) (1 mg/mL) and incubated at 37° C. in 5% CO2 for 24 hours. After incubation, media was decanted from the wells and cells were washed two times with 300 μL of basal MEM-alpha medium (FBS-free). After decanting basal MEM-alpha medium each time, plates were tapped against paper towel to ensure maximum removal of residual media.
For human LBAT, incubation mix was prepared by adding test inhibitor dilutions (3-fold serial dilution in DMSO (Sigma D2650), 10 points) in MEM-alpha (without FBS) containing 0.3 μM 3H-taurocholic acid (ARC ART-1368) and 7.5 μM cold taurocholic acid (Sigma T4009) (maintaining 0.2% final DMSO concentration). For mouse LBAT, incubation mix was prepared by adding test inhibitor dilutions (3-fold serial dilution in DMSO, 10 points) in MEM-alpha (without FBS) containing 0.3 μM 3H-taurocholic acid and 25 μM cold taurocholic acid maintaining 0.2% final DMSO concentration).
50 μL of incubation mix containing test inhibitors was then added to the wells (in duplicate) and the plates were incubated for 20 minutes in a CO2 incubator at 37° C. After incubation, the reaction was stopped by keeping the plates on ice water mix for 2-3 minutes and then the incubation mix was aspirated completely from the wells. The wells were washed two times with 250 μL of chilled unlabeled 1 mM taurocholic acid dissolved in HEPES (Gibco 15630080)-buffered (10 mM) HBSS (Gibco 14175079) (pH 7.4). The plates were tapped against a paper towel after every wash to ensure maximum removal of blocking buffer.
100 μL of MicroScint-20 (PerkinElmer 6013621) was added to the wells and kept overnight at room temperature before reading the plates in TopCount NXT™ Microplate Scintillation and Luminescence Counter from PerkinElmer under 3H Test protocol (set at 120 seconds reading time per well, with normal plate orientation).
(§1) All test compounds were provided in powder form at room temperature. 10 mM DMSO stocks of the test compounds were prepared, aliquoted and stored at −20° C. From the 10 mM DMSO stock of the compounds, a 3-fold serial dilution in DMSO was prepared to get a total of 10 dilutions of the test compounds. 0.5 μL of this dilution in DMSO was added to 250 μL of FBS-free basal media containing 3H-taurocholic acid and cold taurocholic acid to prepare the incubation mixture.

Human IBAT = target: T2, Human IBAT (Homo sapiens, UniProt Q12908); assay: IBAT (h/m) assay, human IBAT-overexpressing cells, 3H-taurocholic acid uptake; assay type: cell-based; conditions: highest test concentration 10 μM, 20 minutes, read-out: hIBAT IC50
T2 construct: expressed in transfected cells; Puromycin selection
T2 sequence (Q12908 1-348): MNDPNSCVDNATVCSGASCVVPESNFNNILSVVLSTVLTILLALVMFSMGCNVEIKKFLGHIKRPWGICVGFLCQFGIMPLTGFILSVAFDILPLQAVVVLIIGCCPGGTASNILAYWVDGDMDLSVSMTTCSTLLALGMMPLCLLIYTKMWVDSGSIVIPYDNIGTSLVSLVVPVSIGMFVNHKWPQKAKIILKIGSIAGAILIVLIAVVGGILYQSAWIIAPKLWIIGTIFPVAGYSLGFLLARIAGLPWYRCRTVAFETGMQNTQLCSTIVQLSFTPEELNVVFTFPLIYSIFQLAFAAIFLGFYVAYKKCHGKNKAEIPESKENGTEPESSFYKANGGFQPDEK
Method: 10,000 cells (Human or Mouse IBAT-overexpressing cells) were seeded in 96-wells plate (Corning CLS3809) in 200 μL MEM-alpha medium (Gibco 12571-063) supplemented with 10% FBS (Gibco 10438026) containing Puromycin (Gibco A1113803) (10 μg/mL) and incubated at 37° C. in 5% CO2 for 48 hours. After incubation, media was decanted from the wells and cells were washed two times with 300 μL of basal MEM-alpha medium (FBS-free). After decanting basal MEM-alpha medium each time, plates were tapped against paper towel to ensure maximum removal of residual media. Test inhibitor dilutions (highest test concentration being 10 μM, 3-fold serial dilution, 10 points) prepared in DMSO (Sigma D2650) were added in incubation mix (maintaining 0.2% final DMSO concentration) containing 0.25 μM 3H-taurocholic acid (ARC ART-1368) and 5 μM of cold taurocholic acid (Sigma T4009). 50 μL of incubation mix containing test inhibitors was then added to the wells (in duplicate) and the plates were incubated for 20 minutes in a CO2 incubator at 37° C. After incubation, the reaction was stopped by keeping the plates on ice water mix for 2-3 minutes and then the incubation mix was aspirated completely from the wells. The wells were washed two times with 250 μL of chilled unlabeled 1 mM taurocholic acid dissolved in HEPES (Gibco 15630080)-buffered (10 mM) HBSS (Gibco 14175079) (pH 7.4). The plates were tapped against a paper towel after every wash to ensure maximum removal of blocking buffer.
100 μL of MicroScint-20 (PerkinElmer 6013621) was added to the wells and kept overnight at room temperature before reading the plates in TopCount NXT™ Microplate Scintillation and Luminescence Counter from PerkinElmer under 3H Test protocol (set at 120 seconds reading time per well).
as §1

`CCCCC1CN(c2ccccc2)c2cc(SC)c(O/C=C/C(=O)O)cc2S(=O)(=O)N1C` (racemic) [Example 14, (E)-3-((3-butyl-2-methyl-7-(methylthio)-1,1-dioxido-5-phenyl-2,3,4,5-tetrahydro-1,2,5-benzothiadiazepin-8-yl)oxy)acrylic Acid] gave an IC50 (Human LBAT) of 3.4 nM.
Work on `CCCCC1CN(c2ccccc2)c2cc(SCC)c(O/C=C/C(=O)O)cc2S(=O)(=O)N1C` (racemic) [Example 17, (E)-3-((3-butyl-7-(ethylthio)-2-methyl-1,1-dioxido-5-phenyl-2,3,4,5-tetrahydro-1,2,5-benzothiadiazepin-8-yl)oxy)acrylic Acid] yielded an IC50 (Human LBAT) of 2.3 nM.
For `CCCCC1CN(c2ccc(F)cc2)c2cc(SC)c(O/C=C/C(=O)O)cc2S(=O)(=O)N1C` (racemic) [Example 20, (E)-3-((3-butyl-5-(4-fluorophenyl)-2-methyl-7-(methylthio)-1,1-dioxido-2,3,4,5-tetrahydro-1,2,5-benzothiadiazepin-8-yl)oxy)acrylic Acid], the IC50 (Human IBAT) was 1150 nM and the IC50 (Human LBAT) was 4.5 nM.
For `CCCCC1CN(c2ccc(F)cc2)c2cc(SC)c(O/C=C/C(=O)O)cc2S(=O)(=O)C1` (racemic) [Example 26, (E)-3-((3-butyl-5-(4-fluorophenyl)-7-(methylthio)-1,1-dioxido-2,3,4,5-tetrahydro-1,5-benzothiazepin-8-yl)oxy)acrylic Acid], the IC50 (Human IBAT) was greater than 10000 nM and the IC50 (Human LBAT) was 8.7 nM.
`CCCC[C@@H]1CN(c2ccccc2)c2cc(SC)c(O/C=C/C(=O)O)cc2S(=O)(=O)C1` (single isomer, unassigned) [Example 2] gave an IC50 (Human LBAT) of 469 nM.
`CCCC[C@H]1CN(c2ccccc2)c2cc(SC)c(O/C=C(\F)C(=O)O)cc2S(=O)(=O)C1` (single isomer, unassigned) [Example 5] was tested, and the IC50 (Human LBAT) was 28 nM.
`CCCC[C@H]1CN(c2ccccc2)c2cc(SC)c(O/C=C(\F)C(=O)O)cc2S(=O)(=O)N1C` (single isomer, unassigned) [Example 12] gave an IC50 (Human LBAT) of 78 nM.
`CCCC[C@@H]1CN(c2ccccc2)c2cc(SC)c(O/C=C/C(=O)O)cc2S(=O)(=O)N1C` (single isomer, unassigned) [Example 16] was tested, and the IC50 (Human LBAT) was 105 nM.
Work on `CCCC[C@@H]1CN(c2ccccc2)c2cc(SCC)c(O/C=C/C(=O)O)cc2S(=O)(=O)N1C` (single isomer, unassigned) [Example 19] yielded an IC50 (Human IBAT) greater than 10000 nM and an IC50 (Human LBAT) of 70 nM.
Compound `CCCC[C@H]1CN(c2ccc(F)cc2)c2cc(SC)c(O/C=C/C(=O)O)cc2S(=O)(=O)N1C` (single isomer, unassigned) [Example 21] has an IC50 (Human IBAT) of 644 nM and an IC50 (Human LBAT) of 3 nM.
For `CCCC[C@@H]1CN(c2ccc(F)cc2)c2cc(SC)c(O/C=C/C(=O)O)cc2S(=O)(=O)N1C` (single isomer, unassigned) [Example 22], the IC50 (Human IBAT) was greater than 10000 nM and the IC50 (Human LBAT) was 591 nM.
In the case of `CCCC[C@H]1CN(c2ccc(F)cc2)c2cc(SCC)c(O/C=C/C(=O)O)cc2S(=O)(=O)N1C` (single isomer, unassigned) [Example 24], the IC50 (Human IBAT) is reported as 265 nM and the IC50 (Human LBAT) is reported as 0.34 nM.
For `CCCC[C@@H]1CN(c2ccc(F)cc2)c2cc(SCC)c(O/C=C/C(=O)O)cc2S(=O)(=O)N1C` (single isomer, unassigned) [Example 25], the IC50 (Human LBAT) was 267 nM.
`CCCC[C@H]1CN(c2ccc(F)cc2)c2cc(SC)c(O/C=C/C(=O)O)cc2S(=O)(=O)C1` (single isomer, unassigned) [Example 27] was tested, and the IC50 (Human IBAT) was greater than 10000 nM and the IC50 (Human LBAT) was 354 nM.
For `CCCC[C@@H]1CN(c2ccc(F)cc2)c2cc(SC)c(O/C=C/C(=O)O)cc2S(=O)(=O)C1` (single isomer, unassigned) [Example 28], the IC50 (Human IBAT) was greater than 3330 nM and the IC50 (Human LBAT) was 1.9 nM.
`CCC1CN(c2ccccc2)c2cc(SC)c(O/C=C(\F)C(=O)O)cc2S(=O)(=O)C1` (centres unmarked) [Example 7, (Z)-3-((3-ethyl-7-(methylthio)-1,1-dioxido-5-phenyl-2,3,4,5-tetrahydro-1,5-benzothiazepin-8-yl)oxy)-2-fluoroacrylic Acid] gave an IC50 (Human LBAT) of 73 nM.
In the case of `CCC1CN(c2ccccc2)c2cc(SC)c(O/C=C/C(=O)O)cc2S(=O)(=O)C1` (centres unmarked) [Example 8, (E)-3-((3-ethyl-7-(methylthio)-1,1-dioxido-5-phenyl-2,3,4,5-tetrahydro-1,5-benzothiazepin-8-yl)oxy)acrylic Acid], the IC50 (Human LBAT) is reported as 242 nM.
`CCCCC1CN(c2ccccc2)c2cc(SC)c(O/C=C/C(=O)O)cc2S(=O)(=O)N1` (centres unmarked) [Example 9, (E)-3-((3-butyl-7-(methylthio)-1,1-dioxido-5-phenyl-2,3,4,5-tetrahydro-1,2,5-benzothiadiazepin-8-yl)oxy)acrylic Acid] gave an IC50 (Human LBAT) of 8.2 nM.
In the case of `CCCCC1CN(c2ccccc2)c2cc(SC)c(O/C=C(\F)C(=O)O)cc2S(=O)(=O)N1C` (centres unmarked) [Example 11, (Z)-3-((3-butyl-2-methyl-7-(methylthio)-1,1-dioxido-5-phenyl-2,3,4,5-tetrahydro-1,2,5-benzothiadiazepin-8-yl)oxy)-2-fluoroacrylic Acid], the IC50 (Human IBAT) is reported as 830 nM and the IC50 (Human LBAT) is reported as 1.1 nM.
Compound `CCCCC1CN(c2ccccc2)c2cc(SCC)c(O/C=C/C(=O)O)cc2S(=O)(=O)C1` (centres unmarked) [Example 30, (E)-3-((3-Butyl-7-(ethylthio)-1,1-dioxido-5-phenyl-2,3,4,5-tetrahydro-1,5-benzothiazepin-8-yl)oxy)acrylic Acid] has an IC50 (Human IBAT) greater than 10000 nM and an IC50 (Human LBAT) of 9.5 nM.
`CCCCC1CN(c2ccccc2)c2cc(SCC)c(O/C=C/C(=O)O)cc2S(=O)(=O)N1` (centres unmarked) [Example 31, (E)-3-((3-Butyl-7-(ethylthio)-1,1-dioxido-5-phenyl-2,3,4,5-tetrahydro-1,2,5-benzothiadiazepin-8-yl)oxy)acrylic Acid] gave an IC50 (Human IBAT) greater than 10000 nM.
`CCCCC1CN(c2ccc(F)cc2)c2cc(SCC)c(O/C=C/C(=O)O)cc2S(=O)(=O)C1` (centres unmarked) [Example 32, (E)-3-((3-Butyl-7-(ethylthio)-5-(4-fluorophenyl)-1,1-dioxido-2,3,4,5-tetrahydro-1,5-benzothiazepin-8-yl)oxy)acrylic Acid] gave an IC50 (Human IBAT) greater than 10000 nM.

Reference: patent US11708340B2, “Benzothia(di)azepine compounds and their use as bile acid modulators” (Albireo AB, priority 2019, dated 2023)
